# Reference: US20250345370A1, “MICROBIAL LIBERATION OF N-METHYLSEROTONIN FROM ORANGE FIBER” (Washington University, priority 2022, published 2025)
# Experiments:
# 5-HT2A receptor = target: T1, 5-HT2A receptor (Rattus norvegicus, UniProt P14842); settings: cultured rat muscle, agonist activity on the 5-HT2A receptor; cited from earlier work
# T1 construct: increase glucose uptake in cultured rat muscle via its agonist activity on the 5-HT2A receptor; host or cells: cultured rat muscle
# [1] = Tissue metabolites (liver glycogen and precursors, colonic glutamate) in germ-free mice given N-methylserotonin; type: in vivo, germ-free C57BL/6J mice
# Protocol: For experiments involving administration of N-methylserotonin to germ-free mice, a stock solution of the compound (100 mg/mL, Santa Cruz Biotechnologies) was prepared in sterile water and filter sterilized ([…]; Nalgene). The outer surface of tubes containing the stock solution was sterilized with Clidox (Pharmacal) and the tubes were introduced into gnotobiotic isolators using standard procedures. The stock solution was then diluted in darkened glass water bottles (Ancare) in order to administer doses of 1 mg/kg/day or 50 mg/kg/day (based on an experimentally determined average consumption of 5 mL of water/day/mouse). Every four days, bottles were replaced with new ones containing fresh N-methylserotonin. Each of the three arms of the experiment, including the control arm where unsupplemented drinking water was administered, consisted of 5 mice.
# Fecal samples and body weights were collected weekly, while food and water intake were monitored daily by comparing pellet mass in the food hopper and the volume of water in water bottles at the beginning and end of a 24 h period and dividing these values by the number of mice per cage. All animals were euthanized between 0830 h and 0930 h without prior fasting. Luminal contents from the proximal and distal halves of the small intestine, the cecum and the colon, host tissues (liver, epididymal fat pads, gastrocnemius muscle, the distal quarter of the small intestine (ileum), cecum and entire colon) plus serum were collected, flash frozen in liquid nitrogen and stored at −80° C. prior to analyses.
# Other metabolites—Tissue (at least 10 mg) was placed in a reinforced 2 mL tube. A 20 times weight volume of extraction solvent was added (40% acetonitrile, 40% methanol, 20% water) and the tissue was disrupted as described herein. Samples were centrifuged at 12,000×g for 10 minutes at 4° C. A 200 μL aliquot of the resulting supernatant was transferred to a 2 mL glass tube and dried in a speed vacuum at room temperature (25° C.) for two hours. The dry extract was reconstituted in 100 μL of 90% water/10% acetonitrile and stored at −4° C. prior to injection; 5 μL was injected into a 1290 Infmity II UHPLC system coupled to a 6470 Triple Quadrupole LC/MS system equipped with a Jet Stream electrospray ionization source (Agilent Technologies). Chromatographic separation was performed on an Agilent ZORBAX Extend C18, […], 1.8 μm column, using the following gradient conditions: mobile phase A, 10 mM tributylamine and 15 mM acetic acid in 3% methanol (v/v); mobile phase B, 10 mM tributylamine and 15 mM acetic acid in 100% methanol; 0% solvent B (0-2 minutes); 0-20% solvent B (2-7.5 minutes); 20-45% solvent B (7.5-13 minutes); 45-99% solvent B (13-20 minutes); 99-0% solvent B (20-22 minutes) at a flow rate of 0.25 mL/minute. […] Transitions were taken from the Agilent Metabolomics dMRM Database.
# Glutamate is known to […] Arntl when directly applied to tissue slices. Knockout of the Per3 homolog Per2 reduces expression of the glutamate transporter (Eaatl, Slc1A3) and uptake of glutamate in the brain. These observations raise the possibility that one way that N-methylserotonin might influence colonic circadian regulators is through its effects on glutamate levels in this tissue.
# 5-Htr2A = 5-Htr2A (Homo sapiens, UniProt P28223); settings: in vitro studies; cited from earlier work
# 5-Htr2A, sequence (P28223 whole entry): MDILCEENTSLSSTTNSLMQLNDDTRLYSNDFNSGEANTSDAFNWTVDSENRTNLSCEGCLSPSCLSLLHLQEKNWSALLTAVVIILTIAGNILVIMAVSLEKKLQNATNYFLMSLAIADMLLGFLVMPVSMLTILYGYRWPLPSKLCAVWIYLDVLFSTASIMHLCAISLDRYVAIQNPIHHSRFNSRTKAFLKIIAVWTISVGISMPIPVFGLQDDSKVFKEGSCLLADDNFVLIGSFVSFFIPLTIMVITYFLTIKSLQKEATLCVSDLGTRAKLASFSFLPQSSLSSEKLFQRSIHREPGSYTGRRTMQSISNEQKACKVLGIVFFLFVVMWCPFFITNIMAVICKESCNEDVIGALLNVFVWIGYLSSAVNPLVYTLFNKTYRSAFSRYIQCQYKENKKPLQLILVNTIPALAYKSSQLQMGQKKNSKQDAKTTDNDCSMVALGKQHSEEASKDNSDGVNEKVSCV
# T1 sequence (P14842 whole entry): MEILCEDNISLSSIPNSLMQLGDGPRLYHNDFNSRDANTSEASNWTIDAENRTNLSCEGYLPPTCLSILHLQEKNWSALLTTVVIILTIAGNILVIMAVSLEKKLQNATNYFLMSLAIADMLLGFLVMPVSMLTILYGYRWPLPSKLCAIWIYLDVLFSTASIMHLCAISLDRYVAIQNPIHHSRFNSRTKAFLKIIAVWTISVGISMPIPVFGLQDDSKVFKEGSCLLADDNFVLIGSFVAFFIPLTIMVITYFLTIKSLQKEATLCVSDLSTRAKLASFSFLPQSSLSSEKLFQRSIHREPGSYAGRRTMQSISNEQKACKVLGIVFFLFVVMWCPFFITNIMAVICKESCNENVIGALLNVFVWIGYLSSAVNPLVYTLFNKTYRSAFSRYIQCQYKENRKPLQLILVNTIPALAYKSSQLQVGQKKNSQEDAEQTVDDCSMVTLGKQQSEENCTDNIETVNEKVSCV
smiles,measurement,setting,value
CNCCc1c[nH]c2ccc(O)cc12 [N-methylserotonin],glucose uptake,5-HT2A receptor,able to increase glucose uptake
same,liver glucose-6-phosphate,[1]; 1 mg/kg/day,the lower dose did not
same,liver glycogen,[1]; 1 mg/kg/day,the lower dose did not
same,liver uridine,[1]; 1 mg/kg/day,the lower dose did not
same,liver uridine monophosphate,[1]; 1 mg/kg/day,the lower dose did not
same,liver glucose-6-phosphate,[1]; 50 mg/kg/day,statistically significant decrease
same,liver glycogen,[1]; 50 mg/kg/day,statistically significant increases
same,liver uridine,[1]; 50 mg/kg/day,statistically significant decreases
same,liver uridine monophosphate,[1]; 50 mg/kg/day,statistically significant decreases
same,glutamate levels in colonic tissue,"[1]; 50 mg/kg/day, untreated controls 11±0.9",21±1.4 ng/mg tissue
same,binding,5-Htr2A,binds
